According to ChEMBL document CHEMBL4396863, “Amyloid-Binding Alcohol Dehydrogenase (ABAD) Inhibitors for the Treatment of Alzheimer's Disease” (J Med Chem, 2019):

What was measured:
[1] = Inhibition of ABAD (unknown origin); parameters: species or system Homo sapiens
[2] = Drug uptake in C57BL/6 mouse brain at 10 mg/kg by LC-MS/MS analysis; assay type: ADME, organism-based; conditions: in vivo
[3] = Cmax in C57BL/6 mouse at 10 mg/kg by LC-MS/MS analysis; assay type: ADME, organism-based; parameters: dose 10 mg/kg; conditions: in vivo
HEK293 [4] = assay: Displacement of radiolabeled estradiol ABAD (unknown origin) transfected in HEK293 cells at 300 uM relative to control; assay type: cell-based; conditions: Homo sapiens
HEK293 [5] = assay: Displacement of radiolabeled estradiol ABAD (unknown origin) transfected in HEK293 cells at 100 uM relative to control; assay type: cell-based; conditions: Homo sapiens
[6] = Displacement of radiolabeled estradiol ABAD (unknown origin) transfected in HEK293 cells; assay type: cell-based, Homo sapiens

IC50 [1] [nM]	SMILES	also measured
3060	COc1ccc(NC(=N)Nc2nc3ccc(OC)cc3s2)cc1	
96	O=C(C(c1ccccc1)n1cnc2[nH]ncc2c1=S)N1CCCCCCC1 (stereo unspecified)	
71	CCCCC1(O)CCN(C(=O)C(c2ccccc2)n2cnc3[nH]ncc3c2=S)CC1 (stereo unspecified)	
1670	O=C(Nc1ccc(O)c(Cl)c1)Nc1nc2ccc(Cl)cc2s1	
1890	O=C(Nc1ccc(O)c(Cl)c1)Nc1nc2ccc(F)cc2s1	
81	O=C(C(c1ccccc1)n1cnc2[nH]ncc2c1=S)N1CCC(O)(c2ccccc2)CC1 (stereo unspecified)	
51	O=C(C(c1cccc(O)c1)n1cnc2[nH]ncc2c1=S)N1CCCCCC1 (stereo unspecified)	
	COc1cccc(CN2CCN(C[C@@]3(O)CC[C@@]4(C)[C@@H](CC[C@@H]5[C@@H]4CC[C@]4(C)C(=O)CC[C@@H]54)C3)CC2)c1	inhibition (HEK293 [4]): 30%; inhibition (HEK293 [5]): 4.7%; IC50 [6]: 550 nM
93	CCN(CC)C(=O)C(c1ccccc1)n1cnc2[nH]ncc2c1=S (stereo unspecified)	
82	O=C(C(c1ccccc1)n1cnc2[nH]ncc2c1=S)N1CCC(O)(c2ccc(Br)cc2)CC1 (stereo unspecified)	
92	O=C([C@H](c1ccccc1)n1cnc2[nH]ncc2c1=S)N1CCCCCC1	

SMILES	IC50 [1] [nM]	also measured
COc1ccc2nc(N[C@@H](c3ccc(O)cc3)P(=O)(OC)OC)sc2c1	52700	Drug uptake [2]: 4 to 50 ng/mL; Cmax [3]: 4.8 ng/mL
